{"source": "patent US20250275959A1", "about": "“COMPOUNDS AND METHODS OF THEIR USE” (LEXICON PHARMACEUTICALS, INC., priority 2024, published 2025)", "assay": "Murine diet-induced obesity (DIO) model, Compounds B-D study", "type": "in vivo, C57BL/6J mice", "conditions": "DIO mice", "protocol": "The effects of four representative compounds of the invention were tested in a mouse model of diet-induced obesity (DIO): • Compound A is (R)—N-(tert-butylsulfonyl)-4-(1-(5-(pyridin-3-yloxy)pyridin-2-yl)ethoxy)-3-(trifluoromethyl)benzamide; • Compound B is (R)-4-(1-(5-(cyclopropylmethoxy)pyridin-2-yl)propoxy)-N-((4-(2-(dimethylamino)ethoxy)phenyl)sulfonyl)-2,3-difluorobenzamide; • Compound C is (R)—N-((4-(2-(dimethylamino)ethoxy)piperidin-1l-yl)sulfonyl)-2,3-difluoro-4-(1-(5-(pyridin-2-yloxy)pyridin-2-yl)propoxy)benzamide; and • Compound D is (R)-2,3-difluoro-N-((4-methylpiperazin-1-yl)sulfonyl)-4-(1-(5-(pyridin-2-yloxy)pyridin-2-yl)propoxy)benzamide.\nThe mice used in these experiments were C57BL/6J mice fed a high-fat diet (D12492 from Research Diets) ad libitum during the study period. The vehicle and test article formulations were 10% w/v Solutol in water.\nIn this study, three compounds tested at 30 mg/kg were compared against vehicle control over a month. After their acclimation period, DIO mice were equally divided into groups of ten mice each based on body weight. The animals were pre-dosed for three days prior to formal dosing (once per day treatment every group), as well as weight and food intake were recorded from Day −2 onwards. From Day 1 to Day 27, the animals in the dosing group were administered orally by gavage at 5:00 p.m. every day. All animals were fasted overnight after dosing on Day 28 and Day 29. Then the blood (retro-orbital bleed) of mice from each group was collected at 7:00 a.m. to separate out the serum for measuring total cholesterol levels (TC), triglyceride (TG), aminotransferase alanine (ALT), aspartate aminotransferase (AST) and total bilirubin (TBil) levels on Day 29. On day 30, all animals were performed OGTT test (0 min, 15 min, 30 min, 60 min, 90 min and 120 min) and measured insulin levels (0 min, 15 min, 30 min and 60 min). On day 32, all animals were injected insulin after 4 hours fasting, then performed ITT test (0 min, 15 min, 30 min, 60 min and 90 min). On day 33, Epididymal white adipose tissue (eWAT), jejunum, liver, heart and brain were collected; eWAT, liver and heart weights were recorded. All of the adipose tissue in the abdominal cavity was collected and weighted, and the fatty tissue coefficient (body fat ratio) was calculated and then stored at −80° C. for inspection.\n• 1. Body weight and Food Consumption: Pre-dose every day from Day −2 onwards. • 2. Day −2,—1 and Day 0: Handle mice and gavage with vehicle. • 3. Day 1˜27: Dose˜5:00 PM. • 4. Day 28: Dose˜5:00 PM. Fast overnight. • 5. Day 29: Determine total cholesterol levels and triglyceride, ALT, AST, total bilirubin levels˜7:00 AM. Resume feeding. • 6. Day 29: Dose˜5:00 PM. Fast overnight. • 7. Day 30: (No drug administration) Oral glucose tolerance test (OGTT) with glucose levels measured at Pre-dose, 15 min, 30 min, 60 min, 90 min and 120 min after the glucose challenge. And insulin levels will be test at time 0 min, 15 min, 30 min and 60 min after the glucose challenge. • 8. Day 30˜31: Dose˜5:00 PM. • 9. Day 32: (No drug administration) ITT test (two days after the OGTT test): Fast 4 h. After insulin injection, the levels of glucose will be measured at Pre-dose, 15 min, 30 min, 60 min and 90 min. • 10. After the ITT test. Collect serum with a terminal bleed from all 50 mice. • 11. Collect epidydimal WAT (eWAT) pad, jejunum, liver, heart, and brain. • 12. Record eWAT, liver, and heart weights. • 13. Before freezing tissue/serum: • (i) Assess Drug Concentration; serum, liver, eWAT, heart, jujenum, and brain. (25 serum samples; 5 mice/group will progress to biomarker study and remaining 25 serum samples saved for future analysis). • 14. Prepare liver, heart and eWAT tissue for histopathology analysis. • (ii) Liver for all 50 mice; HE staining to assess liver steatosis. • (iii) Heart or all 50 mice; HE and DAPI staining to assess cardiac morphology. […]"}
{"smiles": "CC[C@@H](Oc1ccc(C(=O)NS(=O)(=O)N2CCN(C)CC2)c(F)c1F)c1ccc(Oc2ccccn2)cn1", "note": "[Compound D, (R)-2,3-difluoro-N-((4-methylpiperazin-1-yl)sulfonyl)-4-(1-(5-(pyridin-2-yloxy)pyridin-2-yl)propoxy)benzamide]", "values": [{"measurement": "mean body weight versus control group", "setting": "30 mg/kg oral daily", "result": "significantly lower than that of the control group from Day 15 to the end"}, {"measurement": "overall food consumption versus control group", "setting": "30 mg/kg oral daily", "result": "significantly lower than that of the control group"}, {"measurement": "Body Weight (g)/Day", "setting": "30 mg/kg oral daily, Day 1", "result": "44.9 ± 4.3", "unit": "g"}, {"measurement": "Body Weight (g)/Day", "setting": "30 mg/kg oral daily, Day 2", "result": "44.3 ± 4", "unit": "g"}, {"measurement": "Body Weight (g)/Day", "setting": "30 mg/kg oral daily, Day 3", "result": "43.6 ± 3.9", "unit": "g"}, {"measurement": "Body Weight (g)/Day", "setting": "30 mg/kg oral daily, Day 4", "result": "43.7 ± 3.8", "unit": "g"}, {"measurement": "Body Weight (g)/Day", "setting": "30 mg/kg oral daily, Day 5", "result": "43.7 ± 3.6", "unit": "g"}, {"measurement": "Body Weight (g)/Day", "setting": "30 mg/kg oral daily, Day 6", "result": "43.5 ± 3.6", "unit": "g"}, {"measurement": "Body Weight (g)/Day", "setting": "30 mg/kg oral daily, Day 7", "result": "43.4 ± 3.5", "unit": "g"}, {"measurement": "Body Weight (g)/Day", "setting": "30 mg/kg oral daily, Day 8", "result": "43.7 ± 3.6", "unit": "g"}, {"measurement": "Body Weight (g)/Day", "setting": "30 mg/kg oral daily, Day 9", "result": "43.5 ± 3.6", "unit": "g"}, {"measurement": "Body Weight (g)/Day", "setting": "30 mg/kg oral daily, Day 10", "result": "43.3 ± 3.5", "unit": "g"}, {"measurement": "Body Weight (g)/Day", "setting": "30 mg/kg oral daily, Day 11", "result": "42.9 ± 3.4", "unit": "g"}, {"measurement": "Body Weight (g)/Day", "setting": "30 mg/kg oral daily, Day 12", "result": "42.6 ± 3.4", "unit": "g"}, {"measurement": "Body Weight (g)/Day", "setting": "30 mg/kg oral daily, Day 13", "result": "42.3 ± 3.4", "unit": "g"}, {"measurement": "Body Weight (g)/Day", "setting": "30 mg/kg oral daily, Day 14", "result": "42.3 ± 3.3", "unit": "g"}, {"measurement": "Body Weight (g)/Day", "setting": "30 mg/kg oral daily, Day 15", "result": "42.4 ± 3.2", "unit": "g"}, {"measurement": "Body Weight (g)/Day", "setting": "30 mg/kg oral daily, Day 16", "result": "42.3 ± 3.2", "unit": "g"}, {"measurement": "Body Weight (g)/Day", "setting": "30 mg/kg oral daily, Day 17", "result": "42.1 ± 3.4", "unit": "g"}, {"measurement": "Body Weight (g)/Day", "setting": "30 mg/kg oral daily, Day 18", "result": "42.2 ± 3.4", "unit": "g"}, {"measurement": "Body Weight (g)/Day", "setting": "30 mg/kg oral daily, Day 19", "result": "42.3 ± 3.5", "unit": "g"}, {"measurement": "Body Weight (g)/Day", "setting": "30 mg/kg oral daily, Day 20", "result": "42.3 ± 3.6", "unit": "g"}, {"measurement": "Body Weight (g)/Day", "setting": "30 mg/kg oral daily, Day 21", "result": "42.3 ± 3.6", "unit": "g"}, {"measurement": "Body Weight (g)/Day", "setting": "30 mg/kg oral daily, Day 22", "result": "42.3 ± 3.7", "unit": "g"}, {"measurement": "Body Weight (g)/Day", "setting": "30 mg/kg oral daily, Day 23", "result": "42.3 ± 3.7", "unit": "g"}, {"measurement": "Body Weight (g)/Day", "setting": "30 mg/kg oral daily, Day 24", "result": "42.2 ± 3.8", "unit": "g"}, {"measurement": "Body Weight (g)/Day", "setting": "30 mg/kg oral daily, Day 25", "result": "42.4 ± 3.4", "unit": "g"}, {"measurement": "Body Weight (g)/Day", "setting": "30 mg/kg oral daily, Day 26", "result": "42.5 ± 3.5", "unit": "g"}, {"measurement": "Body Weight (g)/Day", "setting": "30 mg/kg oral daily, Day 27", "result": "42.5 ± 3.7", "unit": "g"}, {"measurement": "Body Weight (g)/Day", "setting": "30 mg/kg oral daily, Day 28", "result": "42.5 ± 3.9", "unit": "g"}, {"measurement": "Body Weight (g)/Day", "setting": "30 mg/kg oral daily, Day 29", "result": "41.8 ± 3.8", "unit": "g"}, {"measurement": "Body Weight (g)/Day", "setting": "30 mg/kg oral daily, Day 30", "result": "39.5 ± 3.6", "unit": "g"}, {"measurement": "Body Weight (g)/Day", "setting": "30 mg/kg oral daily, Day 31", "result": "39.7 ± 3.9", "unit": "g"}, {"measurement": "Body Weight (g)/Day", "setting": "30 mg/kg oral daily, Day 32", "result": "38.9 ± 3.8", "unit": "g"}, {"measurement": "Body Weight (g)/Day", "setting": "30 mg/kg, Day 0 (pre-dose)", "result": "44.9 ± 4.3", "unit": "g"}, {"measurement": "eWAT coefficient versus control group", "setting": "30 mg/kg, Day 33", "result": "slightly lower than that of the control group"}, {"measurement": "eWAT weights versus control group", "setting": "30 mg/kg, Day 33", "result": "significantly lower than that of the control group"}, {"measurement": "Body Weight (g)/Day", "setting": "30 mg/kg, Day −1 (pre-dose)", "result": "44.8 ± 4.1", "unit": "g"}, {"measurement": "Body Weight (g)/Day", "setting": "30 mg/kg, Day −2 (pre-dose)", "result": "44.9 ± 4.1", "unit": "g"}, {"measurement": "mean adipose weights versus control group", "setting": "30 mg/kg, abdominal adipose tissue", "result": "significantly lower than that of the control group"}, {"measurement": "ITT blood glucose versus control group", "setting": "Day 32, at 15, 30, 60 and 90 minutes after insulin", "result": "significantly lower than that of the control group"}]}
